Data reported in article PMC8156151 (The European Respiratory Journal, 2021).

Experiments:
Assay type in all cases: in vivo, human
Osteopontin = experiment: Plasma biomarker osteopontin; conditions: for Osteopontin raw data, Mean (SD) / Osteopontin least square means % baseline±SEM: IPF patients
Protocol: (§1) All patients, investigators, sites and study sponsor personnel were blinded to the study group assignments throughout the study. Patients underwent study-specific assessments on days 2, 3, 7, 14 and 15, and a post-study assessment was carried out 26–30 days after the last day of the study period. Assessments included vital signs (supine blood pressure, pulse, oxygen saturation, oral temperature and respiratory rate), spirometry, 12-lead ECG, physical examination, laboratory safety screen (haematology, biochemistry, urinalysis and urinary drugs of abuse screen) and blood sampling for PK measurements. All adverse events and concomitant medications were recorded from the time of the screening visit until the post-study follow-up visit. BAL was performed at day −1 (24 h before the first dose) and at day 14 (2 h after the last dose). The BAL procedure was performed as per international guidelines. Briefly, 240 mL of 0.9% saline at room temperature was instilled in 40 mL aliquots into the right middle lobe and aspirated by suction after each aliquot.
(§2) BAL cells were separated from fluid by centrifugation, and cells were collected, stained with antibodies (supplementary material) and then fixed before analysis using a LSR Fortessa flow cytometer (Becton Dickinson, Franklin Lakes, NJ, USA). Data were analysed using FlowJo software (Tree Star, Ashland, OR, USA). Macrophages were identified as having high side scatter properties and human leukocyte antigen-DR positivity. Gal-3 expression (mean fluorescence intensity) was determined from the macrophage gate (supplementary figures S1 and S2). […] Samples were analysed by magnetic Luminex assay (R&D Systems, Minneapolis, MN, USA) or ELISA.
(§3) For part 2 of the study, placebos were combined from the three dose-specific cohorts into a pooled control group (n=9). For alveolar macrophage Gal-3 expression and the plasma biomarkers, ANCOVA was performed for percentage of baseline ((day 14/day 1)×100). The ANCOVA model included effects for treatment group and baseline (day 1) value. […] An additional analysis including dose as a continuous covariate was also performed. The Pearson correlation coefficient (r) and associated p-value were calculated for percentage of baseline and day 14 values between plasma biomarkers and alveolar macrophage Gal-3 expression. […] The analysis is exploratory and there was no pre-planned adjustment for multiple testing; the study was not powered for this. Alveolar macrophage Gal-3 expression was considered the primary exploratory analysis with the pre-selected biomarkers secondary. A Bonferroni correction for multiple testing of the secondary end-points comparing the 10 mg group with placebo gives a critical value of 0.0063. Data are presented as the difference in least square means with 95% confidence interval and p-value unless otherwise stated. All analyses were performed using SAS version 9.4 (SAS Institute, Cary, NC, USA). […]

Periostin = experiment: Plasma biomarker periostin; conditions: for Periostin raw data, Mean (SD) / Periostin least square means % baseline±SEM: IPF patients
Protocol: as §1, §2, §3

Gal-1 = experiment: Plasma biomarker Gal-1; conditions: for Galectin-1 raw data, Mean (SD) / Gal-1 least square means % baseline±SEM: IPF patients
Protocol: as §1, §2, §3

healthy subjects = experiment: Safety and tolerability (TEAEs), part 1, single inhaled dose
Protocol: Subjects were discharged 24 h post-dose (day 2) provided there were no safety concerns, and returned for three outpatient visits on days 3, 8 and 14 post-dose, with a post-study follow-up between days 26 and 30. Safety and PK assessments were made at predetermined time-points.
Following completion of dosing for the final subject in each dosing cohort, an interim dose review meeting was held with a safety committee consisting of the principal investigator, medical monitor, pharmacokineticist and statistician to review the safety, tolerability and PK data (study design schematic shown in figure 1). The study statistician and pharmacokineticist were unblinded at the end of each cohort in order to conduct the analyses required for dose review decisions. The primary end-point was the safety and tolerability of single or multiple doses of TD139 in healthy subjects or IPF patients, respectively.

CCL18 (PARC) = experiment: Plasma biomarker CCL18; conditions: IPF patients
Protocol: as §1, §2, §3

PDGF-AA = experiment: Plasma biomarker PDGF-AA; conditions: for PDGF-AA raw data, Mean (SD) / PDGF-AA least square means % baseline±SEM: IPF patients
Protocol: as §1, §2, §3

[1] = healthy subjects, single inhaled 0.15 mg
[2] = healthy subjects, single inhaled 1.5 mg
[3] = healthy subjects, single inhaled 3 mg
[4] = healthy subjects, single inhaled 10 mg
[5] = healthy subjects, single inhaled 20 mg
[6] = healthy subjects, single inhaled 50 mg

OC[C@H]1O[C@@H](S[C@@H]2O[C@H](CO)[C@H](O)[C@H](n3cc(-c4cccc(F)c4)nn3)[C@H]2O)[C@H](O)[C@@H](n2cc(-c3cccc(F)c3)nn2)[C@H]1O [TD139]
Osteopontin difference in least square means % baseline (95% CI) (Osteopontin; 10 mg vs placebo, ANCOVA): −26.8 (−88.0–34.3) % baseline
Osteopontin raw data, Mean (SD) (Osteopontin; Day 14, 0.3 mg): 37756 (20451.51) pg/ml
Osteopontin raw data, Mean (SD) (Osteopontin; Day 14, 3 mg): 31032.4 (13230.48) pg/ml
Osteopontin raw data, Mean (SD) (Osteopontin; Day 14, 10 mg): 48630.5 (37737.51) pg/ml
Osteopontin least square means % baseline±SEM (Osteopontin; day 14, 0.3 mg once daily): 106.2±23.9 % baseline
Osteopontin least square means % baseline±SEM (Osteopontin; day 14, 3 mg once daily): 84±23.7 % baseline
Osteopontin least square means % baseline±SEM (Osteopontin; day 14, 10 mg once daily): 91.3±23.4 % baseline
Periostin difference in least square means % baseline (95% CI) (Periostin; 10 mg vs placebo, ANCOVA): −5.4 (−18.8–8.0) % baseline
Periostin raw data, Mean (SD) (Periostin; Day 14, 0.3 mg): 125952.3 (17487.63) pg/ml
Periostin raw data, Mean (SD) (Periostin; Day 14, 3 mg): 142019.1 (30390.08) pg/ml
Periostin raw data, Mean (SD) (Periostin; Day 14, 10 mg): 108663.7 (24686.82) pg/ml
Periostin least square means % baseline±SEM (Periostin; day 14, 0.3 mg once daily): 114.0±5.3 % baseline
Periostin least square means % baseline±SEM (Periostin; day 14, 3 mg once daily): 99.3±5.2 % baseline
Periostin least square means % baseline±SEM (Periostin; day 14, 10 mg once daily): 93.1±5.0 % baseline
Gal-1 difference in least square means % baseline (95% CI) (Gal-1; 10 mg vs placebo, ANCOVA): −16.6 (−60.0–26.7) % baseline
Galectin-1 raw data, Mean (SD) (Gal-1; Day 14, 0.3 mg): 41996.4 (7357.87) pg/ml
Galectin-1 raw data, Mean (SD) (Gal-1; Day 14, 3 mg): 60416.7 (17348.65) pg/ml
Galectin-1 raw data, Mean (SD) (Gal-1; Day 14, 10 mg): 48409.7 (21339.06) pg/ml
Gal-1 least square means % baseline±SEM (Gal-1; day 14, 0.3 mg once daily): 93.1±16.7 % baseline
Gal-1 least square means % baseline±SEM (Gal-1; day 14, 3 mg once daily): 120.2±16.6 % baseline
Gal-1 least square means % baseline±SEM (Gal-1; day 14, 10 mg once daily): 89.7±16.6 % baseline
safety and tolerability (healthy subjects; healthy subjects, single doses up to 50 mg): safe and well tolerated
Subjects reporting ≥1 TEAE: Serious TEAE (healthy subjects; [1]): 0 n (%)
Subjects reporting ≥1 TEAE: TEAE (healthy subjects; [1]): 0 n (%)
Subjects reporting ≥1 TEAE: TEAE leading to withdrawal (healthy subjects; [1]): 0 n (%)
Subjects with TEAE by relationship to study IMP: Almost definite (healthy subjects; [1]): 0 n (%)
Subjects with TEAE by relationship to study IMP: Possible (healthy subjects; [1]): 0 n (%)
Subjects with TEAE by relationship to study IMP: Probable (healthy subjects; [1]): 0 n (%)
Subjects with TEAE by relationship to study IMP: Unlikely (healthy subjects; [1]): 0 n (%)
Subjects with TEAE by severity: Mild (healthy subjects; [1]): 0 n (%)
TEAEs (healthy subjects; [1]): 0 n
Subjects reporting ≥1 TEAE: Serious TEAE (healthy subjects; [2]): 0 n (%)
Subjects reporting ≥1 TEAE: TEAE (healthy subjects; [2]): 0 n (%)
Subjects reporting ≥1 TEAE: TEAE leading to withdrawal (healthy subjects; [2]): 0 n (%)
Subjects with TEAE by relationship to study IMP: Almost definite (healthy subjects; [2]): 0 n (%)
Subjects with TEAE by relationship to study IMP: Possible (healthy subjects; [2]): 0 n (%)
Subjects with TEAE by relationship to study IMP: Probable (healthy subjects; [2]): 0 n (%)
Subjects with TEAE by relationship to study IMP: Unlikely (healthy subjects; [2]): 0 n (%)
Subjects with TEAE by severity: Mild (healthy subjects; [2]): 0 n (%)
TEAEs (healthy subjects; [2]): 0 n
Subjects reporting ≥1 TEAE: Serious TEAE (healthy subjects; [3]): 0 n (%)
Subjects reporting ≥1 TEAE: TEAE (healthy subjects; [3]): 2 (50.0) n (%)
Subjects reporting ≥1 TEAE: TEAE leading to withdrawal (healthy subjects; [3]): 0 n (%)
Subjects with TEAE by relationship to study IMP: Almost definite (healthy subjects; [3]): 1 (25.0) n (%)
Subjects with TEAE by relationship to study IMP: Possible (healthy subjects; [3]): 0 n (%)
Subjects with TEAE by relationship to study IMP: Probable (healthy subjects; [3]): 0 n (%)
Subjects with TEAE by relationship to study IMP: Unlikely (healthy subjects; [3]): 1 (25.0) n (%)
Subjects with TEAE by severity: Mild (healthy subjects; [3]): 2 (50.0) n (%)
TEAEs (healthy subjects; [3]): 2 n
Subjects reporting ≥1 TEAE: Serious TEAE (healthy subjects; [4]): 0 n (%)
Subjects reporting ≥1 TEAE: TEAE (healthy subjects; [4]): 3 (75.0) n (%)
Subjects reporting ≥1 TEAE: TEAE leading to withdrawal (healthy subjects; [4]): 0 n (%)
Subjects with TEAE by relationship to study IMP: Almost definite (healthy subjects; [4]): 3 (75.0) n (%)
Subjects with TEAE by relationship to study IMP: Possible (healthy subjects; [4]): 2 (50.0) n (%)
Subjects with TEAE by relationship to study IMP: Probable (healthy subjects; [4]): 0 n (%)
Subjects with TEAE by relationship to study IMP: Unlikely (healthy subjects; [4]): 0 n (%)
Subjects with TEAE by severity: Mild (healthy subjects; [4]): 3 (75.0) n (%)
TEAEs (healthy subjects; [4]): 7 n
Subjects reporting ≥1 TEAE: Serious TEAE (healthy subjects; [5]): 0 n (%)
Subjects reporting ≥1 TEAE: TEAE (healthy subjects; [5]): 4 (100.0) n (%)
Subjects reporting ≥1 TEAE: TEAE leading to withdrawal (healthy subjects; [5]): 0 n (%)
Subjects with TEAE by relationship to study IMP: Almost definite (healthy subjects; [5]): 4 (100.0) n (%)
Subjects with TEAE by relationship to study IMP: Possible (healthy subjects; [5]): 1 (25.0) n (%)
Subjects with TEAE by relationship to study IMP: Probable (healthy subjects; [5]): 1 (25.0) n (%)
Subjects with TEAE by relationship to study IMP: Unlikely (healthy subjects; [5]): 0 n (%)
Subjects with TEAE by severity: Mild (healthy subjects; [5]): 4 (100.0) n (%)
TEAEs (healthy subjects; [5]): 7 n
Subjects reporting ≥1 TEAE: Serious TEAE (healthy subjects; [6]): 0 n (%)
Subjects reporting ≥1 TEAE: TEAE (healthy subjects; [6]): 4 (100.0) n (%)
Subjects reporting ≥1 TEAE: TEAE leading to withdrawal (healthy subjects; [6]): 0 n (%)
Subjects with TEAE by relationship to study IMP: Almost definite (healthy subjects; [6]): 4 (100.0) n (%)
Subjects with TEAE by relationship to study IMP: Possible (healthy subjects; [6]): 3 (75.0) n (%)
Subjects with TEAE by relationship to study IMP: Probable (healthy subjects; [6]): 0 n (%)
Subjects with TEAE by relationship to study IMP: Unlikely (healthy subjects; [6]): 0 n (%)
Subjects with TEAE by severity: Mild (healthy subjects; [6]): 4 (100.0) n (%)
TEAEs (healthy subjects; [6]): 10 n
biochemistry, haematology, vital signs or 12-lead ECG data (healthy subjects; part 1, healthy subjects): no clinically significant safety findings or treatment- or dose-related changes observed
incidence of cough (healthy subjects; part 1, healthy subjects): 11.1%
incidence of mild dysgeusia (most commonly occurring TEAE) (healthy subjects; part 1, healthy subjects): 36.1%
CCL18 (PARC) raw data, Mean (SD) (CCL18 (PARC); Day 14, 0.3 mg): 79733.8 (25166.88) pg/ml
CCL18 (PARC) raw data, Mean (SD) (CCL18 (PARC); Day 14, 3 mg): 73022.7 (33487.12) pg/ml
CCL18 (PARC) raw data, Mean (SD) (CCL18 (PARC); Day 14, 10 mg): 53456.8 (11339.99) pg/ml
CCL18 (PARC) least square means % baseline±SEM (CCL18 (PARC); day 14, 0.3 mg once daily): 89.6±11.8 % baseline
CCL18 (PARC) least square means % baseline±SEM (CCL18 (PARC); day 14, 3 mg once daily): 98.9±12.0 % baseline
CCL18 (PARC) least square means % baseline±SEM (CCL18 (PARC); day 14, 10 mg once daily): 74.6±11.8 % baseline
PDGF-AA difference in least square means % baseline (95% CI) (PDGF-AA; 10 mg vs placebo, ANCOVA): −129.7 (−295.3–35.8) % baseline
PDGF-AA raw data, Mean (SD) (PDGF-AA; Day 14, 0.3 mg): 1299.7 (754.57) pg/ml
PDGF-AA raw data, Mean (SD) (PDGF-AA; Day 14, 3 mg): 4075.9 (5511.46) pg/ml
PDGF-AA raw data, Mean (SD) (PDGF-AA; Day 14, 10 mg): 2556.7 (987.79) pg/ml
PDGF-AA least square means % baseline±SEM (PDGF-AA; day 14, 0.3 mg once daily): 61.7±60.6 % baseline
PDGF-AA least square means % baseline±SEM (PDGF-AA; day 14, 3 mg once daily): 117.1±62.1 % baseline
PDGF-AA least square means % baseline±SEM (PDGF-AA; day 14, 10 mg once daily): 83.6±61.2 % baseline
